Blank lines part the entries; values can stand above or below the compound they belong to.
Experiments:
[1] = Excitation and fluorescence emission wavelength measured with fluorescence spectrophotometer; assay type: physicochemical; details: aqueous solution, 10 mg/mL DMSO solution diluted 500-fold with purified water
[2] = system: hair cell (neuromast) of Zebrafish; assay: Staining of hair cell (neuromast) of Zebrafish juveniles with probe, fluorescence stereomicroscope image visually evaluated; assay type: in vivo; details: dye concentration 250 μg/mL, 1 hour, Zebrafish juveniles Day 7 after fertilization
[3] = system: hair cell (neuromast) of Zebrafish; assay: as above; assay type: in vivo; design: Fluorescence intensity: key to the marks not given beside the values; details: dye concentration 1 μg/mL, 1 hour, Zebrafish juveniles Day 7 after fertilization
Protocol: A staining compound (1) was dissolved in DMSO to prepare a stock solution at a concentration of 1 mg/mL. The stock solution was diluted with distilled water to prepare a hair cell staining solution 1 having a dye concentration of 1 μg/mL. Further, Egg Water was prepared by dissolving artificial seawater SEALIFE (manufactured by Marinetech Co., Ltd.) in distilled water at a concentration of 60 mg/L. Five juveniles (embryos on Day 7 after fertilization) of Zebrafish were placed into any one of wells of a 24-well multiwell plate together with feeding water. The feeding water was discharged and 1 mL of the hair cell staining solution 1 was added. After the whole had been left to stand for 1 hour, the hair cell staining solution 1 in the well was discharged and replaced by 1 mL of fresh Egg Water. In addition, such an operation that Egg Water was discharged and replaced by 1 mL of fresh Egg Water was repeated twice. One of the juveniles was taken out from the well onto a dish, the motion of the juvenile was restricted by addition of methylcellulose, and a fluorescence image was captured with a fluorescence stereomicroscope. MZ16FA manufactured by Leica Microsystems K.K. was used as a stereoscopic microscope.
An image pickup unit (a digital camera DP72 for a microscope manufactured by Olympus Corporation) of a fluorescence stereomicroscope was remodeled by removing an IR cut filter so as to capture a fluorescence image in a near-infrared wavelength region.

[4] = system: juvenile neuromast (hair cell) of Zebrafish; assay: Change in staining intensity of neuromast due to morpholino knockdown of target genes (SLC25A12, TRPC2); assay type: in vivo; details: for Increase of staining properties by knockdown of SLC25A12 and TRPC2 genes: each of SLC25A12 and TRPC2 knockdown; for Ratio of staining intensity (KD/control): juveniles Day 7
Protocol: In order to knockdown a specific gene, a mixed solution containing a morpholino antisense oligonucleotide (MO) was prepared. MO was synthesized by using GeneTools, LLC (Philomath, Oreg.). A morpholino antisense oligonucleotide (atgMO) designed so that the translation from a start codon to a protein would be inhibited was dissolved in distilled water to prepare a MO mixed solution having the following composition.
A fertilized embryo within 1 hour after fertilization (before a second cleavage period) of Zebrafish was microinjected with the MO mixed solution. A capillary made of glass (inner diameter: 0.6 mm) having a sharp extremity obtained by extending and cutting a glass tube with a PC-10 puller (manufactured by Narishige Co., Ltd.) and grinding the cross section with a EG-400 grinder (manufactured by Narishige Co., Ltd.) was used for the microinjection. Feeding water and the fertilized embryo were placed into a 10-cm dish in which 1% agarose had been bedded, and the microinjection was performed under a stereoscopic microscope. During injection, one of a manual injector IM-9A (manufactured by Narishige Co., Ltd.) and an electrical microinjector IM-30 (manufactured by Narishige Co., Ltd.) was connected to the capillary made of glass, to thereby perform infusion with pressure. The infusion amount of MO was set to 1 to 10 ng per fertilized embryo.
Because the MO mixed solution is supplemented with a dye (0.005% phenol red), the success or failure of the infusion of the MO mixed solution may be confirmed with the naked eye. Further, because the MO mixed solution is supplemented with a fluorescent protein expression vector (EGFP), on Day 3 after infusion, the success or failure of the microinjection can be confirmed after the fertilized embryo has hatched (a sample in which a signal derived from the fluorescent protein was observed also retains MO in Zebrafish).
Juveniles (embryos on Day 7 after fertilization) of Zebrafish were stained in the same manner as that in Example 1, and a change in staining condition of the hair cell was measured.
The compound (54) was selected as the probe for a hair cell and compared with FM1-43. Further, SLC25A12 and TRPC2 were selected as target genes. The staining intensity of a juvenile neuromast having unknockdown genes was used as a control, and compared with the staining intensity of a juvenile neuromast in which each of the target genes has been knockdown by representing a fluorescence image obtained with a stereoscopic microscope in numerical values.

[5] = system: neuromast (hair cell) of Zebrafish; assay: Staining intensity of neuromast at different concentrations of staining agent (fluorescence intensity per unit intake time); assay type: in vivo; details: 10, 30 and 100 ng/mL staining solutions, intensity/msec
Protocol: The compounds (43), (54), and (65) were selected as probes for a hair cell, and compared with FM1-43. Three kinds of staining solutions containing those staining agents were prepared at concentrations of 10 ng/mL, 30 ng/mL, and 100 ng/mL. Juveniles of (embryos on Day 7 after fertilization) of Zebrafish were stained in the same manner as that in Example 1. When a fluorescence image is acquired with a fluorescence stereomicroscope, the fluorescence intensity per unit intake time (intensity/msec) was calculated by changing an intake time (exposure time) and dividing the fluorescence intensity (Relative Fluorescence Unit, RFU) of a neuromast of the obtained fluorescence image by the intake time.

hair cell of Zebrafish = details: 5 μM chemical substance, 24 hours exposure, Zebrafish Day 7 after fertilization, stained with staining compound 54
Protocol: Zebrafish after exposure was washed with distilled water. The same operation as that in Example 1 was performed except that the staining compound (1) used in Example 1 was changed to a staining compound (54).

SMILES: CC[n+]1ccccc1C=Cc1ccc(N(C)C)cc1.[I-] [DASPEI, 2-(4-(dimethylamino)styryl)-N-ethylpyridinium iodide, reference compound]
Excitation wavelength λex [1]: 461 nm | Fluorescence emission wavelength λem [1]: 589 nm | Fluorescence intensity [2]: +

Excitation wavelength λex [1]: 503 nm | Fluorescence emission wavelength λem [1]: 627 nm
SMILES: CCCCN(CCCC)c1ccc(/C=C/c2cc[n+](CCC[N+](CC)(CC)CC)cc2)cc1.[Br-].[Br-] [FM1-43, reference compound]
Fluorescence intensity [3]: +++ | Increase of staining properties by knockdown of SLC25A12 and TRPC2 genes [4]: about 30% | Ratio of staining intensity (KD/control) ([4]; target gene SLC25A12 knockdown): 1.36 | Ratio of staining intensity (KD/control) ([4]; target gene TRPC2 knockdown): 1.35

Excitation wavelength λex [1]: 784 nm | Fluorescence emission wavelength λem [1]: 811 nm
SMILES: CC1(C)C(/C=C/C=C/C=C/C=C2\N(CCCCS(=O)(=O)O)c3ccc4ccccc4c3C2(C)C)=[N+](CCCCS(=O)(=O)[O-])c2ccc3ccccc3c21 [ICG, indocyanine green, reference compound]
Fluorescence intensity [2]: No stained | Staining pattern [2]: No stained

SMILES: CN1/C(=C\C=C\C2=[N+](C)c3ccccc3C2(C)C)C(C)(C)c2ccccc21 [Staining compound 43]
Staining intensity of the hair cell compared with FM1-43 (FIG. 4) [5]: higher

SMILES: CC/N=c1\cc2oc3cc(NCC)c(C)cc3c(-c3ccccc3C(=O)OCC)c-2cc1C [Staining compound 54]
Increase of staining properties by knockdown of SLC25A12 and TRPC2 genes [4]: about 2 fold | Ratio of staining intensity (KD/control) ([4]; target gene SLC25A12 knockdown): 2.06 | Ratio of staining intensity (KD/control) ([4]; target gene TRPC2 knockdown): 2.18 | Staining intensity of the hair cell compared with FM1-43 (FIG. 4) [5]: higher

SMILES: CCN1/C(=C\C=C\c2sc3ccccc3[n+]2CC)Sc2ccccc21 [Staining compound 65]
Staining intensity of the hair cell compared with FM1-43 (FIG. 4) [5]: higher

SMILES: NCCS(=O)(=O)O [Taurine, taurine]
Change in staining intensity (hair cell of Zebrafish): No change

— patent US20130219529A1, “PROBE FOR A HAIR CELL, AND LABELLING METHOD FOR A HAIR CELL USING THE PROBE FOR A HAIR CELL” (CANON KABUSHIKI KAISHA, priority 2008, published 2013)
